Experimental data from PMC6469618 (Environmental Science and Pollution Research International, 2019).
Values joined by “and” are separate entries in the source; they are usually repeats but may differ in a detail not shown here. Identical values can stand only once.

Tests used:
[1] = tested on: water louse; conditions: naturalistic pond experiment; ref Lagesson et al. 2016; cited from earlier work
[2] = tested on: zebrafish (Danio rerio); parameters: method as in Endres et al. 2017; conditions: stressed zebrafish; environmentally relevant concentrations; ref Endres et al. 2017; cited from earlier work
[3] = tested on: humans; conditions: standard dose (18 mg); ref Faraj et al. 1974; Concerta Prescribing Information 2013; cited from earlier work
[4] = tested on: zebrafish; parameters: method as in Levin et al. 2011; conditions: zebrafish exposed to 50 mg/L as embryos; ref Levin et al. 2011; cited from earlier work
[5] = in vivo; conditions: nine-spine stickleback (Pungitius pungitius), 187 ng/L
Text: (§5) Nine-spine stickleback were collected using umbrella traps from ponds in Röbäck, Sweden, in July 2017. Fish were housed in a large, aerated, ground water flow-through tank (1500 L) until the start of the experiment. Fish were fed frozen chironomid larvae until satiation once daily. Water louse were collected using sweep nets from Djupsundsbäcken near Holmsund, Sweden, in January 2018. Water louse were kept in aerated containers with detritus (predominately alder leaf litter) until the start of the experiment.
(§6) Stickleback and water louse were exposed to 187 ng/L (nominal concentration) methylphenidate at two temperature treatments: 10 °C (in a climate chamber) and 20 °C (ambient room temperature). Both exposures were maintained at the same light cycle used in study 1. Organisms were exposed under static conditions using three replicate glass aquaria filled with 20 L water. The aquaria were equipped with an airstone and two ceramic clay pots for shelter in each temperature treatment. Fish were exposed in two tanks, while water louse were exposed separately in the remaining tank. Water from each tank was sampled at 0 min (immediately after dosing), 15 min, 30 min, 60 min, 4 h, 8 h, 24 h, 3 days, 5 days, 7 days, 9 days, 10 days, 11 days, 12 days, and 13 days. Three to six water louse and three to six fish were sampled at each of the following time points: 60 min, 4 h, 8 h, 24 h, 3 days, 5 days, 7 days, 9 days, 10 days, 11 days, 12 days, and 13 days. Fish were euthanized via cerebral concussion and spinal severance. Water quality measures of pH (Merck pH Universal Indicator Strips), dissolved oxygen, and temperature (YSI Pro DO Series) were verified in the exposure tanks on the final days of sampling. For the low (10 °C) and high (20 °C) temperature rooms, respectively, water temperature was (mean ± s.d.) 10.03 ± 0.32 °C and 17.07 ± 0.21 °C; dissolved oxygen was 14.40 ± 0.27 mg/L and 12.30 ± 0.30 mg/L; and there were no changes in pH (7 ± 0, for both temperatures).
(§7) Immediately after sampling, all water and organisms sampled were frozen at − 20 °C until further processing. Muscle tissue (mean ± s.d. 0.09 ± 0.02 g; range 0.02–0.13 g) was dissected from each stickleback by taking a section of the dorsal axial muscle. Water louse collected from each temperature treatment (10 °C and 20 °C) on each sampling day were pooled due to low sample weight before extracting whole-body tissue (0.05 ± 0.01 g; range 0.03–0.07 g). However, when enough tissue was available, multiple water louse samples were analysed. To each sample, 5 ng (50 μL) of the internal standard methylphenidate-D9 (Cerilliant, USA; in methanol, HPLC-grade, Fisher Chemical, Loughborough, UK) was added. For both stickleback and water louse, tissues were extracted using 1.5 ml acetonitrile (HPLC-grade, Fisher Chemical, Loughborough, UK) repeated twice (based on the method used by Brodin et al. [2013]; McCallum et al. [2017], [2018]). The samples were homogenized and extracted for 4 min at 42,000 oscillations per minute (Mini Beadbeater, Biospec. Bartlesville, USA) with zirconium beads and then centrifuged the samples at 17,500 g for 10 min (Beckman Coulter Microfuge 22R Centrifuge). This protocol was used for both eluent mixtures, and the supernatants were combined. The combined supernatants were evaporated to 20 μl and the sample was reconstituted in 100 μl methanol (HPLC-grade, Fisher Chemical, Loughborough, UK). […]

[6] = tested on: nine-spine stickleback (Pungitius pungitius); test: Study 2: uptake in muscle tissue of stickleback; conditions: for Start relative tissue concentration (Cb/Cw): 60 min after dosing
Text: as §5, §6, §7

[7] = tested on: human; conditions: oral administration, ref Gualtieri et al. 1982, Doerge et al. 2000; cited from earlier work
[8] = tested on: water louse (Asellus aquaticus); test: Study 2: uptake in whole-body tissue of water louse; conditions: for Start relative tissue concentration (Cb/Cw): 60 min after dosing; for End relative tissue concentration (Cb/Cw): final sampling day
Text: as §5, §6
(§8) Immediately after sampling, all water and organisms sampled were frozen at − 20 °C until further processing. Muscle tissue (mean ± s.d. 0.09 ± 0.02 g; range 0.02–0.13 g) was dissected from each stickleback by taking a section of the dorsal axial muscle. Water louse collected from each temperature treatment (10 °C and 20 °C) on each sampling day were pooled due to low sample weight before extracting whole-body tissue (0.05 ± 0.01 g; range 0.03–0.07 g). However, when enough tissue was available, multiple water louse samples were analysed. To each sample, 5 ng (50 μL) of the internal standard methylphenidate-D9 (Cerilliant, USA; in methanol, HPLC-grade, Fisher Chemical, Loughborough, UK) was added. For both stickleback and water louse, tissues were extracted using 1.5 ml acetonitrile (HPLC-grade, Fisher Chemical, Loughborough, UK) repeated twice (based on the method used by Brodin et al. [2013]; McCallum et al. [2017], [2018]). The samples were homogenized and extracted for 4 min at 42,000 oscillations per minute (Mini Beadbeater, Biospec. Bartlesville, USA) with zirconium beads and then centrifuged the samples at 17,500 g for 10 min (Beckman Coulter Microfuge 22R Centrifuge). This protocol was used for both eluent mixtures, and the supernatants were combined. The combined supernatants were evaporated to 20 μl and the sample was reconstituted in 100 μl methanol (HPLC-grade, Fisher Chemical, Loughborough, UK).

[9] = tested on: guppies (Poecilia reticulata); parameters: method as in De Serrano et al. 2016; conditions: adult guppies exposed to 250 ng/L; ref De Serrano et al. 2016; cited from earlier work
[10] = Study 1: static water only, stability of methylphenidate and breakdown to ritalinic acid; conditions: for Water concentration, measured end: final sampling day; for Water concentration, measured end / Water concentration, measured start: nominal 1870 ng/L methylphenidate, Ntanks = 1; for Water concentration, measured start: immediately after dosing
Procedure: A total of 1870 ng/L (nominal concentration) of methylphenidate (1 mL of the stock solution) was added to a glass aquarium filled with 20 L of ground water. The tank was aerated and kept at 20 °C (ambient room temperature). Water was sampled at 0 min (immediately after dosing), 5 min, 15 min, 45 min, 90 min, 4 h, 10 h, 24 h, 2 days, 3 days, 4 days, 5 days, 7 days, and 12 days. This exposure was conducted in a windowless room with a light-dark cycle of 13L:11D.
(§1) Fifty microlitres of methylphenidate-D9 (500 ng/L) was added to 10-ml aliquots of the aqueous samples, filtered (0.45 μm, Filtropur S, Sarstedt, N~umbrecht, Germany), and acidified with 10 μL formic acid (0.1% v/v, Merck KGaA, Darmstadt, Germany) to a pH of 2.7.
(§2) All of the samples were injected to an EQuan MAX Plus LC-Quantiva triple quadrupole MS/MS (Thermo Scientific, San Jose, USA). A 10-μL injection volume was used for stickleback/louse extracts and the calibration curve. For the aqueous samples, and the corresponding calibration curve, a 1-mL injection volume was used and preconcentrated the analytes on an online-connected Oasis HLB column (2.1 × 20 mm, 15 μm Waters, Milford, USA) using column switching (70 s transfer time and 180 s elution time). Milli-Q ultra-pure water (Millipore) and methanol (Lichrosolv, Hypergrade, Merck) were used as mobile phases (both containing 0.1% formic acid (Suprapur, Merck KGaA), v/v) together with Hypersil GOLD columns (Thermo Scientific) as stationary phases: guard (20 × 2.1 mm, 3 μm) and analytical (50 × 2.1 mm, 3 μm). The flow rate was kept at 350 μL/min, and we used two linear gradients. The gradient for the stickleback/louse extracts were as follows: 0–2 min, methanol 2%; 2–4 min, methanol 2–100%; 4–6 min, methanol 100%; and 6.01–7.5 min, methanol 2%. For the aqueous samples, the gradient was 0–2 min, methanol 2%; 2–4.75 min, methanol 2–100%; 4.75–7 min, methanol 100%; and 7.01–9 min, methanol 2%.
(§3) Positive polarity and a heated electrospray at 338 °C, an ion transfer tube temperature at 350 °C, and a spray voltage at 3.5 kV were used. […] See supplementary materials for QA/QC data.
(§4) All analyses were conducted in R (version: 3.5.0; R Core Team [2018]). […] Welch’s two-sample t tests were used to analyse whether methylphenidate degradation in the water column was impacted by temperature treatment. […] Degradation/formation rate, kd, is the slope given by a linear regression analysis. […] Relative tissue uptake was calculated at each sampling point.

[11] = Study 2: static water + biota, concentrations in the water column; conditions: for Water concentration, measured end / Water concentration, measured start / half-life at 187 ng/L / Formation time of ritalinic acid in water: static + biota; for Water concentration, measured end: final sampling day; for Water concentration, measured end / Water concentration, measured start: nominal 187 ng/L methylphenidate, mean ± s.d.; for Water concentration, measured start: immediately after dosing, Ntanks = 3; for half-life at 187 ng/L: aquarium water with biota (stickleback or water louse), pH 7, Half-life of methylphenidate in water
Procedure: Stickleback and water louse were exposed to 187 ng/L (nominal concentration) methylphenidate at two temperature treatments: 10 °C (in a climate chamber) and 20 °C (ambient room temperature). Both exposures were maintained at the same light cycle used in study 1. Organisms were exposed under static conditions using three replicate glass aquaria filled with 20 L water. The aquaria were equipped with an airstone and two ceramic clay pots for shelter in each temperature treatment. Fish were exposed in two tanks, while water louse were exposed separately in the remaining tank. Water from each tank was sampled at 0 min (immediately after dosing), 15 min, 30 min, 60 min, 4 h, 8 h, 24 h, 3 days, 5 days, 7 days, 9 days, 10 days, 11 days, 12 days, and 13 days. Three to six water louse and three to six fish were sampled at each of the following time points: 60 min, 4 h, 8 h, 24 h, 3 days, 5 days, 7 days, 9 days, 10 days, 11 days, 12 days, and 13 days. Fish were euthanized via cerebral concussion and spinal severance. Water quality measures of pH (Merck pH Universal Indicator Strips), dissolved oxygen, and temperature (YSI Pro DO Series) were verified in the exposure tanks on the final days of sampling.
as §1, §2, §3, §4

[12] = in vivo; conditions: water louse (Asellus aquaticus), 187 ng/L
Text: as §5, §6, §8

[13] = ref SciFinder; cited from earlier work
[14] = tested on: rhesus macaque; conditions: oral administration, ref Gualtieri et al. 1982, Doerge et al. 2000; cited from earlier work

## OCCOCCN1CCN(C(c2ccccc2)c2ccc(Cl)cc2)CC1 (stereo not drawn) [hydroxyzine]
[1]
  Bioconcentration in water louse compared to European perch (Perca fluviatilis): higher levels

## COC(=O)C(c1ccccc1)C1CCCCN1 (stereo not drawn) [methylphenidate]
[2]
  Effect on anxiety-like behaviours (e.g., freezing, hiding): inhibited anxiety-like behaviours
[3]
  Share of dose excreted as ritalinic acid: up to 80%
[4]
  Effect on anxiety behaviours: Reductions in anxiety behaviours
[5]
  concentration at 60 min: 0.18 ng/g
[6]
  Time of highest tissue concentration (first sampling point): 60 min
  Time of highest tissue concentrations: ≤ 4 h
[6]; 10 °C
  Start relative tissue concentration (Cb/Cw): 1.2 ± 0.5 (0.7–2.1)
[6]; 20 °C
  Start relative tissue concentration (Cb/Cw): 0.5 ± 0.1 (0.4–0.7)
[7]
  Time of peak in plasma: 1 to 4 h
[8]; 10 °C
  Start relative tissue concentration (Cb/Cw): 0.6
  End relative tissue concentration (Cb/Cw): 7.5 ± 3.2 (4.0–10.4)
[8]; 20 °C
  Start relative tissue concentration (Cb/Cw): 1.1
  End relative tissue concentration (Cb/Cw): 50.0
[8]; depending on temperature
  Time of peak tissue concentration: ~ 6 days and 5 to 7 days and 5–7 days
[9]
  Effect on anxiety behaviours: Reductions in anxiety behaviours
[10]; 20 °C, static water only
  Water concentration, measured end: 7 ng/L
  Water concentration, measured start: 1660 ng/L
[10]; ground water in an aerated glass aquarium, no biota
  half-life at 1870 ng/L: 37 h
[10]; study not given
  Time that concentrations stay above ~ 180 ng/L in the water column: up to 2 days
[11]; 10 °C
  Water concentration, measured end: 28 ± 4 ng/L
  Water concentration, measured start: 192 ± 28 ng/L
  half-life at 187 ng/L: 122 h
[11]; 20 °C
  Water concentration, measured end: 2 ± 1 ng/L
  Water concentration, measured start: 205 ± 19 ng/L
  half-life at 187 ng/L: 47 h
[12]
  concentration at 60 min: 0.2 ng/g
  concentration at 13 days: 0.1 ng/g
[13]
  pKa: 9.5
[14]
  Time of peak in plasma: 1 to 4 h

## O=C1Nc2ccc(Cl)cc2C(c2ccccc2)=NC1O (stereo not drawn) [oxazepam]
[1]
  Bioconcentration in water louse compared to European perch (Perca fluviatilis): higher levels

## O=C(O)C(c1ccccc1)C1CCCCN1 (stereo not drawn) [ritalinic acid, α-phenyl-2-piperidine acetic acid]
[10]; 20 °C, static water only
  Formation time of ritalinic acid in water: 79 h
  Water concentration, measured end: 1606 ng/L
  Water concentration, measured start: 387 ng/L
[10]; water without biota, depending on temperature
  Time after which ritalinic acid concentration surpasses methylphenidate in water: 48 to 100 h
[11]; 10 °C
  Formation time of ritalinic acid in water: 62 h
  Water concentration, measured end: 202 ± 12 ng/L
  Water concentration, measured start: 11 ± 10 ng/L
[11]; 20 °C
  Formation time of ritalinic acid in water: 65 h
  Water concentration, measured end: 231 ± 12 ng/L
  Water concentration, measured start: 8 ± 2 ng/L
[11]; water with biota, depending on temperature
  Time after which ritalinic acid concentration surpasses methylphenidate in water: 48 to 100 h
